# According to article PMC9287172, “Molecular basis for the regulation of human glycogen synthase by phosphorylation and glucose-6-phosphate” (Nature Structural & Molecular Biology, 2022):
# T1: Glycogen synthase (GYS1) (Homo sapiens, UniProt P13807)
# T1 construct: full-length GYS1 (aa 1–737) coexpressed with GYG1 aa 294–350 (GYS1–GYG1^ΔCD); with GYG1 (aa 294–350)
# T1 sequence (P13807 1-737): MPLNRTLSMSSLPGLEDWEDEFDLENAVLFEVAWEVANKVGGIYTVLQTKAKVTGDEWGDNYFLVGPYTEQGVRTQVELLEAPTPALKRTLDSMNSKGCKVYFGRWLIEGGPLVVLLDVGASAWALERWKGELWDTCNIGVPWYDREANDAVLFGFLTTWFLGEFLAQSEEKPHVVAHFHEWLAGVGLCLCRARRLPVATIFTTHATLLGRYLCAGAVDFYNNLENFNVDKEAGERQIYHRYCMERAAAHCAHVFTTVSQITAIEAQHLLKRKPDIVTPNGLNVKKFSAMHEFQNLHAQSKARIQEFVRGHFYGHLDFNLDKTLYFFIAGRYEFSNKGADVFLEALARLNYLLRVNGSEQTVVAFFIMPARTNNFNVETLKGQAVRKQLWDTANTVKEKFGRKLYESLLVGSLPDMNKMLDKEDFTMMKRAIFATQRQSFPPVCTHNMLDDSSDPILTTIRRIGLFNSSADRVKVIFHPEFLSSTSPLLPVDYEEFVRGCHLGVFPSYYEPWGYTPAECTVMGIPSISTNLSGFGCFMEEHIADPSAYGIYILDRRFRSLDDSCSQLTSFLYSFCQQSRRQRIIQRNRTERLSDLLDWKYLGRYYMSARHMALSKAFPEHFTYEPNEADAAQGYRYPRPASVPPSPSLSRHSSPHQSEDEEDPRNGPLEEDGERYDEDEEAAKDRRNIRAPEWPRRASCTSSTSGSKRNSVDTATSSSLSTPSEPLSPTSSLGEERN
# T1 sequence (P46976 294-350 partner): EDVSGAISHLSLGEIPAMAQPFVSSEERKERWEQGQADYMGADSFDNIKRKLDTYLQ
# T2: PTG (PPP1R3C) (Homo sapiens, UniProt Q9UQK1)
# T2 construct: CBM21 domain, aa 134–259
# T2 sequence (Q9UQK1 134-259): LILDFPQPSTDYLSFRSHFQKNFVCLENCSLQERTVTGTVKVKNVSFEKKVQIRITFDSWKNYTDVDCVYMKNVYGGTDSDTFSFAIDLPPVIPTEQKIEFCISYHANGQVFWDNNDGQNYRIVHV
# T3: GYS1–GYG1^FL complex (full-length human GYS1 with full-length glucosylated GYG1) (human, UniProt P13807 1-737; P46976-1 1-350, heterogeneous phosphorylation | glucosylated (GYG1 is attached with a glucose chain), heterogeneous)
# T3 construct: human glycogen synthase GYS1, full length; human glycogenin-1 (GYG1), isoform GN-1L, UniProt P46976-1, full length; source: Sf9 cells, coexpressed, purified (Ni-Sepharose, Superose 6, TEV treatment); not shown: His6, N-terminal, cleaved
# T3 sequence (looked up) 1: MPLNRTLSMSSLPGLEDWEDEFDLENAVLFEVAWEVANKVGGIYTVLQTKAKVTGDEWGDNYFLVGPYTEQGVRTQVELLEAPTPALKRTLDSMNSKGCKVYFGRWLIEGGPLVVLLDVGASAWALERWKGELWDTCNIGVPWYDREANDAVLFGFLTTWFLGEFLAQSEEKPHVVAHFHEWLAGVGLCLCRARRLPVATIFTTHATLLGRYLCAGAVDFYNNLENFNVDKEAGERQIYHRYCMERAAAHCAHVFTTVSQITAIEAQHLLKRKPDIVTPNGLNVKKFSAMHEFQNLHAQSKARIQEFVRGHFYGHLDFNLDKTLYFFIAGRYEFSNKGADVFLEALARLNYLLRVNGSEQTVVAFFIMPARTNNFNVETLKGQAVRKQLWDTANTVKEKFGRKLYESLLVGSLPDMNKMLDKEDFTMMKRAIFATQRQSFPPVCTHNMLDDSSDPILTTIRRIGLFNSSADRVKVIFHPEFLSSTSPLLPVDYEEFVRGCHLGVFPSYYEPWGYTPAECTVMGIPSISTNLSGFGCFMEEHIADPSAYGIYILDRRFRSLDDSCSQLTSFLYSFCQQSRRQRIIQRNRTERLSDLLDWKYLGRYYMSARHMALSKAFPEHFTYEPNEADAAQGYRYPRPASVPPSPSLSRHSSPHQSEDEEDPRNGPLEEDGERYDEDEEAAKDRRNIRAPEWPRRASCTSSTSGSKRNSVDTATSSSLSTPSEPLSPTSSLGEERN
# T3 sequence (looked up) 2: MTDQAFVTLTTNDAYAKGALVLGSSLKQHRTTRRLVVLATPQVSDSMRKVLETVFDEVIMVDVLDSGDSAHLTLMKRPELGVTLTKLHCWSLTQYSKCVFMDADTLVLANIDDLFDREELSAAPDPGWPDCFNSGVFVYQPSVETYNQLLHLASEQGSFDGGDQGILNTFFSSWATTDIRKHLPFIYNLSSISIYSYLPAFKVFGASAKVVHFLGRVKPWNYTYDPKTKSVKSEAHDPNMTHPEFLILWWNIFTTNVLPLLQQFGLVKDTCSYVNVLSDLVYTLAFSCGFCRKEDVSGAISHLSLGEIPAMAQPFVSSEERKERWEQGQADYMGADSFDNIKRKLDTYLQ
# B1: human glycogen synthase GYS1 (aa 1–737), untagged, as in the GYS1–GYG1^ΔCD complex (enzyme, UniProt P13807 1-737, looked up)
# chain: MPLNRTLSMSSLPGLEDWEDEFDLENAVLFEVAWEVANKVGGIYTVLQTKAKVTGDEWGDNYFLVGPYTEQGVRTQVELLEAPTPALKRTLDSMNSKGCKVYFGRWLIEGGPLVVLLDVGASAWALERWKGELWDTCNIGVPWYDREANDAVLFGFLTTWFLGEFLAQSEEKPHVVAHFHEWLAGVGLCLCRARRLPVATIFTTHATLLGRYLCAGAVDFYNNLENFNVDKEAGERQIYHRYCMERAAAHCAHVFTTVSQITAIEAQHLLKRKPDIVTPNGLNVKKFSAMHEFQNLHAQSKARIQEFVRGHFYGHLDFNLDKTLYFFIAGRYEFSNKGADVFLEALARLNYLLRVNGSEQTVVAFFIMPARTNNFNVETLKGQAVRKQLWDTANTVKEKFGRKLYESLLVGSLPDMNKMLDKEDFTMMKRAIFATQRQSFPPVCTHNMLDDSSDPILTTIRRIGLFNSSADRVKVIFHPEFLSSTSPLLPVDYEEFVRGCHLGVFPSYYEPWGYTPAECTVMGIPSISTNLSGFGCFMEEHIADPSAYGIYILDRRFRSLDDSCSQLTSFLYSFCQQSRRQRIIQRNRTERLSDLLDWKYLGRYYMSARHMALSKAFPEHFTYEPNEADAAQGYRYPRPASVPPSPSLSRHSSPHQSEDEEDPRNGPLEEDGERYDEDEEAAKDRRNIRAPEWPRRASCTSSTSGSKRNSVDTATSSSLSTPSEPLSPTSSLGEERN
# modifications: multiply phosphorylated (intact mass spectrometry); phosphorylated Ser641 (site 3a) modelled in the inhibited state
# notes: human glycogen synthase GYS1 (muscle isoform), amino acids 1–737, codon-optimized synthetic gene; Homotetramer (dimer of dimers) in the cryo-EM structures; source: Sf9 cells, coexpressed with His6-GST-GYG1 294–350 from a bicistronic construct, purified (Ni-Sepharose, Superose 6)
# How the values were obtained:
# Glycogen synthase (GYS1) [1] = target: T1, Glycogen synthase (GYS1); test: cryo-EM structure at […] Å with Glc6P and UDP-glc added (UDP-glc hydrolysed); format: binding
# Glycogen synthase (GYS1) [2] = target: T1, Glycogen synthase (GYS1); test: cryo-EM structures (7Q13 […] Å; also 7Q12, 7Q0S); thermal shift titration, AC50 of PP1c-dephosphorylated GYS1–GYG1^ΔCD; format: binding
# PTG (PPP1R3C) [3] = target: T2, PTG (PPP1R3C); test: thermal shift assay titration (AC50); format: binding
# PTG (PPP1R3C) [4] = target: T2, PTG (PPP1R3C); test: thermal shift assay (no Kd); format: binding
# [5] = target: the molecule itself; test: cryo-EM structure; GYS1–GYG1^ΔCD at 0.75 or 0.5 mg ml^-1 in 25 mM HEPES pH 7.5, 200 mM NaCl, 2.0 mM TCEP, 0.05% Tween-20; as purified (inhibited state), with 5 mM Glc6P (inhibited-like and activated states), with 5 mM Glc6P and 5 mM UDP-Glc (activated state); D2 symmetry
# [6] = target: T3, GYS1–GYG1^FL complex (full-length human …); test: pull-down; His-PPP1R3C (1.0 mg ml^-1) preincubated with GYS1–GYG1 complex (0.25 mg ml^-1) or GYG1 (0.5 mg ml^-1) for 30 min at 4 °C, captured on Talon resin in 25 mM HEPES pH 7.5, 100 mM NaCl, 1 mM TCEP, 0.2% Tween-20; wash with 10 mM imidazole; SDS-PAGE, Coomassie; details: both partners purified
# [7] = target: B1; test: cryo-EM structure; GYS1–GYG1^ΔCD at 0.75 or 0.5 mg ml^-1 in 25 mM HEPES pH 7.5, 200 mM NaCl, 2.0 mM TCEP, 0.05% Tween-20; as purified (inhibited state), with 5 mM Glc6P (inhibited-like and activated states), with 5 mM Glc6P and 5 mM UDP-Glc (activated state); D2 symmetry; details: both partners purified
molecule,measurement,setting,value
"OC[C@H]1OC(O)[C@H](O)[C@@H](O)[C@@H]1O (stereo partly shown) [GLC, glucose]",cryo-EM structure at 3.0 Å with Glc6P and UDP-glc added (UDP-glc hydrolysed),Glycogen synthase (GYS1) [1],"The hydrolysed glucose molecule formed multiple hydrogen bonds with the side chains of Arg211, Arg311, Glu510 and Tyr514"
"O=P(O)(O)OC[C@H]1OC(O)[C@H](O)[C@@H](O)[C@@H]1O (stereo partly shown) [Glc6P, glucose-6-phosphate]",AC50,Glycogen synthase (GYS1) [2],1.5 ± 0.2 mM
OC[C@H]1O[C@H](O[C@H]2[C@H](O)[C@@H](O)[C@@H](O[C@H]3[C@H](O)[C@@H](O)[C@@H](O[C@H]4[C@H](O)[C@@H](O)[C@@H](O[C@H]5[C@H](O)[C@@H](O)[C@@H](O[C@H]6[C@H](O)[C@@H](O)[C@@H](O[C@H]7[C@H](O)[C@@H](O)C(O)O[C@@H]7CO)O[C@@H]6CO)O[C@@H]5CO)O[C@@H]4CO)O[C@@H]3CO)O[C@@H]2CO)[C@H](O)[C@@H](O)[C@@H]1O (stereo partly shown) [maltoheptaose],AC50,PTG (PPP1R3C) [3],2.4 ± 0.6 mM
OC[C@H]1O[C@H](O[C@H]2[C@H](O)[C@@H](O)[C@@H](O[C@H]3[C@H](O)[C@@H](O)[C@@H](O[C@H]4[C@H](O)[C@@H](O)C(O)O[C@@H]4CO)O[C@@H]3CO)O[C@@H]2CO)[C@H](O)[C@@H](O)[C@@H]1O (stereo partly shown) [maltotetraose],thermal shift assay (no Kd),PTG (PPP1R3C) [4],"Glycogen, debranched glycogen, maltotetraose and maltoheptaose increased the thermostability of PTG(CBM21)"
B1,stoichiometry N,[5],4
"human PTG (PPP1R3C) aa 134–259, CBM21 domain construct, His-tagged (domain or fragment, UniProt Q9UQK1 134-259, looked up, The His6-tag is TEV-cleavable but was kept: the protein was captured on Talon resin by it; also called PTG(CBM21); His-PPP1R3C; source: cultured in autoinduction Terrific Broth, purified (Ni-Sepharose, Superdex 75); not shown: His6, N-terminal, kept) LILDFPQPSTDYLSFRSHFQKNFVCLENCSLQERTVTGTVKVKNVSFEKKVQIRITFDSWKNYTDVDCVYMKNVYGGTDSDTFSFAIDLPPVIPTEQKIEFCISYHANGQVFWDNNDGQNYRIVHV",binding result,[6],binds
"human GYG1 C terminus, aa 294–350 (GYG1^ΔCD) (domain or fragment, UniProt P46976-1 294-350, looked up, human glycogenin-1 (GYG1), isoform GN-1L, UniProt P46976-1, amino acids 294–350, codon-optimized synthetic gene; Residues 317–349 were modelled in the cryo-EM map; The methods name MBP-His6, His6-GST and His6-GFP tags as tried; the results name His6-GST for the bicistronic constructs; also called GYG1 294–350; not shown: His6-GST, N-terminal, cleaved) EDVSGAISHLSLGEIPAMAQPFVSSEERKERWEQGQADYMGADSFDNIKRKLDTYLQ",stoichiometry N,[7],1
